For data set [1], the system named is HBV. The data set can be described thus: Anti-HBV activity in HepG2.2.15 cells (HBV DNA in culture medium by qPCR). Particulars: Hepatitis B virus, HepG2.2.15, 144 h, HepG2.2.15 cells, 6 days treatment, HBV DNA in culture medium quantified by real-time PCR; read-out: EC50. In kind it is cell-based. The essentials:
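HepG2.2.15 cells in 2% FBS medium at 37 °C were treated with compounds for 6 days, with medium and compound refreshed at day 3; 1:3 dilutions, 8 concentrations in triplicate, top 10 or 1 uM. HBV DNA in culture medium quantified by qPCR to derive EC50; CC50 from parallel plates (top 100 uM).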

The nature of data set [2]: Cytotoxicity determination in HepG2.2.15 cells (CCK-8 cell viability). In kind it is cell-based. Particulars: human, 6 days treatment, CCK-8 assay, highest concentration 100 uM. The procedure, abridged: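 HepG2.2.15 cells seeded at 5,000 cells/well in 2% FBS medium, exposed 6 days to compounds (8-point 1:3 dilutions from 100 uM, triplicate), refreshed at day 3. Viability read by CCK-8 after 2.5 h at 37° C, absorbance 450 nm with 630 nm reference; CC50 calculated.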

The structures appear in SMILES notation.

Take `COC(=O)C1=C(CN2CC(F)(F)[C@@H]3[C@H]2CON3CCC(C)(C)C(=O)O)NC(c2nccs2)=N[C@H]1c1cccc(F)c1Cl` (single isomer, unassigned) [Compound 170, (cis)-4-(4-((6-(2-chloro-3-fluorophenyl)-5-(methoxycarbonyl)-2-(thiazol-2-yl)-3,6-dihydropyrimidin-4-yl)methyl)-6,6-difluorohexahydro-1H-pyrrolo[3,2-c]isoxazol-1-yl)-2,2-dimethylbutanoic acid]: the half-maximal effective concentration (EC50) in data set [1] worked out at 8 nM. In data set [2], the CC50 at 6 days is greater than 25000 nM.
In the same order, the values of `CCOC(=O)C1=C(CN2CC(F)(F)[C@@H]3[C@H]2CON3CCC(C)(C)C(=O)O)NC(c2nccs2)=NC1c1cccc(F)c1Cl` (single isomer, unassigned) [Compound 171, (cis)-4-(4-((6-(2-chloro-3-fluorophenyl)-5-(ethoxycarbonyl)-2-(thiazol-2-yl)-3,6-dihydropyrimidin-4-yl)methyl)-6,6-difluorohexahydro-1H-pyrrolo[3,2-c]isoxazol-1-yl)-2,2-dimethylbutanoic acid] are 4 nM and 32300 nM.
In the case of `CCOC(=O)C1=C(CN2CC(F)(F)[C@@H]3[C@H]2CON3CC(C)(C)C(=O)O)NC(c2nccs2)=N[C@@H]1c1ccc(F)nc1C` (single isomer, unassigned) [Compound 172, 3-((cis)-4-((5-(Ethoxycarbonyl)-6-(6-fluoro-2-methylpyridin-3-yl)-2-(thiazol-2-yl)-3,6-dihydropyrimidin-4-yl)methyl)-6,6-difluorohexahydro-1H-pyrrolo[3,2-c]isoxazol-1-yl)-2,2-dimethylpropanoic acid], in data set [1], the EC50 came to 33 nM. Further, in data set [2], the CC50 at 6 days was greater than 100000 nM.
Take `CCOC(=O)C1=C(CN2CC(F)(F)[C@@H]3[C@H]2CON3CCC(C)(C)C(=O)O)NC(c2nccs2)=N[C@H]1c1cccc(F)c1F` (single isomer, unassigned) [Compound 173, 4-((cis)-4-((6-(2,3-difluorophenyl)-5-(ethoxycarbonyl)-2-(thiazol-2-yl)-3,6-dihydropyrimidin-4-yl)methyl)-6,6-difluorohexahydro-1H-pyrrolo[3,2-c]isoxazol-1-yl)-2,2-dimethylbutanoic acid]: in data set [1], the EC50 is 16 nM. Moreover, in data set [2], the 50% cytotoxic concentration (CC50) at 6 days is greater than 100000 nM.
Consider `CCOC(=O)C1=C(CN2CC(F)(F)[C@@H]3[C@H]2CON3CCC(C)(C)C(=O)O)NC(c2nc(C)cs2)=N[C@H]1c1ccc(F)c(F)c1F` (single isomer, unassigned) [Compound 174, 4-((cis)-4-((5-(ethoxycarbonyl)-2-(4-methylthiazol-2-yl)-6-(2,3,4-trifluorophenyl)-3,6-dihydropyrimidin-4-yl)methyl)-6,6-difluorohexahydro-1H-pyrrolo[3,2-c]isoxazol-1-yl)-2,2-dimethylbutanoic acid], for which, in data set [1], the concentration giving a half-maximal response (EC50) worked out at 15 nM. Also, the CC50 at 6 days in data set [2] is greater than 50000 nM.
In the case of `CCOC(=O)C1=C(CN2CC(F)(F)[C@@H]3[C@H]2CON3CCC(C)(C)C(=O)O)NC(c2nccs2)=N[C@H]1c1ccc(F)c(F)c1F` (single isomer, unassigned) [Compound 175, 4-((cis)-4-((5-(Ethoxycarbonyl)-2-(thiazol-2-yl)-6-(2,3,4-trifluorophenyl)-3,6-dihydropyrimidin-4-yl)methyl)-6,6-difluorohexahydro-1H-pyrrolo[3,2-c]isoxazol-1-yl)-2,2-dimethylbutanoic acid], in data set [1], the EC50 was found to be 8 nM. This compound also had a CC50 at 6 days in data set [2] greater than 50000 nM.
`CCOC(=O)C1=C(CN2CC(F)(F)[C@@H]3[C@H]2CON3CC(C)(C)C(=O)O)NC(c2nccs2)=N[C@H]1c1cccc(F)c1C` (single isomer, unassigned) [Compound 176]: the EC50 in data set [1] was determined as 3 nM. In data set [2], this compound yielded a CC50 at 6 days of 24800 nM.
Regarding `CCOC(=O)C1=C(CN2C[C@H](F)[C@H]3[C@@H]2CON3CCC(C)(C)C(=O)O)NC(c2nccs2)=N[C@H]1c1cccc(F)c1C` (single isomer, unassigned) [Compound 177], in data set [1], the EC50 was found to be 15 nM. The compound also displayed a CC50 at 6 days in data set [2] of 24000 nM.
In the same order, the values of `CCOC(=O)C1=C(CN2CC(F)(F)[C@@H]3[C@H]2CON3C[C@@H](CC)C(=O)O)NC(c2nccs2)=N[C@H]1c1cccc(F)c1C` (single isomer, unassigned) [Compound 178A] are 3.5 nM and greater than 50000 nM.
In the same order, the values of `CCOC(=O)C1=C(CN2CC(F)(F)[C@@H]3[C@H]2CON3C[C@H](CC)C(=O)O)NC(c2nccs2)=N[C@H]1c1cccc(F)c1C` (single isomer, unassigned) [Compound 178B] are 12 nM and greater than 50000 nM.
For the compound `CCOC(=O)C1=C(CN2CC(F)(F)[C@@H]3CNC[C@@H]32)NC(c2nccs2)=N[C@H]1c1cccc(F)c1C` (single isomer, unassigned) [Compound 179], the EC50 in data set [1] came out at 50 nM. The CC50 at 6 days in data set [2] is greater than 3100 nM.
In the same order, the values of `CCOC(=O)C1=C(CN2CC(F)(F)[C@@H]3C(=O)N([C@@H](C)C(=O)O)C[C@@H]32)NC(c2nccs2)=N[C@H]1c1cccc(F)c1C` (single isomer, unassigned) [Compound 180] are 92.6 nM and greater than 100000 nM.
For the compound `CCOC(=O)C1=C(CN2CC(F)(F)[C@@H]3C(=O)N(C[C@@H](C)C(=O)O)C[C@@H]32)NC(c2nccs2)=N[C@H]1c1cccc(F)c1C` (single isomer, unassigned) [Compound 181A], the half-maximal effective concentration (EC50) in data set [1] worked out at 12.3 nM. The same compound came in with a CC50 at 6 days in data set [2] of 52900 nM.
Turning to `CCOC(=O)C1=C(CN2CC(F)(F)C3C(=O)N(C[C@H](C)C(=O)O)C[C@@H]32)NC(c2nccs2)=N[C@H]1c1cccc(F)c1C` (single isomer, unassigned) [Compound 181B], the EC50 in data set [1] worked out at 9.5 nM. In data set [2], the CC50 at 6 days is 69900 nM.
Turning to `CCOC(=O)C1=C(CN2CC(F)(F)C3C(=O)N(C[C@@H](CC)C(=O)O)C[C@@H]32)NC(c2nccs2)=N[C@H]1c1cccc(F)c1C` (single isomer, unassigned) [Compound 182A], in data set [1], the EC50 stood at 23.9 nM. In data set [2], this compound returned a CC50 at 6 days of 49600 nM.
For `CCOC(=O)C1=C(CN2CC(F)(F)[C@@H]3C(=O)N(C[C@H](CC)C(=O)O)C[C@@H]32)NC(c2nccs2)=N[C@H]1c1cccc(F)c1C` (single isomer, unassigned) [Compound 182B], the half-maximal effective concentration (EC50) in data set [1] amounted to 11.3 nM. Further, the CC50 at 6 days in data set [2] came out at 33300 nM.
For `CCOC(=O)C1=C(CN2CC(F)(F)[C@@H]3CN(C[C@@H](CC)C(=O)O)C(=O)C32)NC(c2nccs2)=N[C@H]1c1cccc(F)c1C` (single isomer, unassigned) [Compound 183A], in that order: 14.3 nM and 40300 nM.
`CCOC(=O)C1=C(CN2CC(F)(F)[C@@H]3CN(C[C@H](CC)C(=O)O)C(=O)[C@@H]32)NC(c2nccs2)=N[C@H]1c1cccc(F)c1C` (single isomer, unassigned) [Compound 183B]: in data set [1], the EC50 is 6.4 nM. In data set [2], this compound gave a 50% cytotoxic concentration (CC50) at 6 days of 50200 nM.
With `CCOC(=O)C1=C(CN2CC(F)(F)[C@@H]3C(=O)N(CC4(C(=O)O)CC4)C[C@@H]32)NC(c2nccs2)=N[C@H]1c1cccc(F)c1C` (single isomer, unassigned) [Compound 184], in data set [1], the EC50 is 6.7 nM. Besides, the midpoint of cytotoxicity in data set [2], the CC50 at 6 days, lay at 48300 nM.
For `CCOC(=O)C1=C(CN2CC(F)(F)[C@@H]3CN([C@H]4CC[C@@H](C(=O)O)CC4)C(=O)[C@@H]32)NC(c2nccs2)=N[C@H]1c1cccc(F)c1C` (single isomer, unassigned) [Compound 185A], the EC50 in data set [1] was determined as 5.4 nM. Moreover, the CC50 at 6 days in data set [2] turned out to be 48300 nM.
As for `CCOC(=O)C1=C(CN2CC(F)(F)[C@@H]3CN([C@H]4CC[C@H](C(=O)O)CC4)C(=O)[C@@H]32)NC(c2nccs2)=N[C@H]1c1cccc(F)c1C` (single isomer, unassigned) [Compound 185B], the EC50 in data set [1] was 8.3 nM. For the same compound, in data set [2], it took 27600 nM to reach half-maximal cytotoxicity (CC50 at 6 days).
In the same order, the values of `CCOC(=O)C1=C(CN2CC(F)(F)[C@@H]3C(=O)N(c4ccn(CCC(C)(C)C(=O)O)n4)C[C@@H]32)NC(c2nccs2)=N[C@H]1c1cccc(F)c1C` (single isomer, unassigned) [Compound 187] are 81.7 nM and 33600 nM.
As to `CCOC(=O)C1=C(CN2CC(F)(F)[C@@H]3C(=O)N(C(=O)NCC(C)(C)C(=O)O)C[C@@H]32)NC(c2nccs2)=N[C@H]1c1cccc(F)c1C` (single isomer, unassigned) [Compound 188], the EC50 in data set [1] is 62.4 nM. In addition, in data set [2], the 50% cytotoxic concentration (CC50) at 6 days came to 32100 nM.
For `CCOC(=O)C1=C(CN2CC(F)(F)[C@@H]3CN(C(=O)NCC(C)(C)C(=O)O)C(=O)[C@@H]32)NC(c2nccs2)=N[C@H]1c1cccc(F)c1C` (single isomer, unassigned) [Compound 189], in that order: 18.1 nM and 28200 nM.
As to `CCOC(=O)C1=C(CN2CC(F)(F)C3C(=O)N(C(=O)CC(C)(C)C(=O)O)C[C@@H]32)NC(c2nccs2)=N[C@H]1c1cccc(F)c1C` (single isomer, unassigned) [Compound 190], the EC50 in data set [1] worked out at 4.3 nM. In data set [2], this compound returned a CC50 at 6 days of 28700 nM.
In the same order, the values of `CCOC(=O)C1=C(CN2CC(F)(F)[C@@H]3CN(C(=O)CC(C)(C)C(=O)O)C(=O)[C@@H]32)NC(c2nccs2)=N[C@H]1c1cccc(F)c1C` (single isomer, unassigned) [Compound 191] are 13.5 nM and 35900 nM.
Take `CCOC(=O)C1=C(CN2CC(F)(F)[C@@H]3CN([C@H]4C[C@@H](C(=O)O)C4)C(=O)[C@@H]32)NC(c2nccs2)=N[C@H]1c1cccc(F)c1C` (single isomer, unassigned) [Compound 192]: the EC50 in data set [1] came to 16.6 nM. The compound also yielded a CC50 at 6 days in data set [2] of 52900 nM.

A word on the EC50: it is the midpoint of the concentration-response curve. The term CC50 denotes the concentration that lowers cell viability or growth by half. Low values mean harm at low concentration, high ones better tolerance by the cells.
